This is an account of results in publication PMC3059644 (Frontiers in Psychiatry, 2010).

Usually Ki stands for the dissociation constant of the complex between target and ligand, obtained from inhibition or displacement. For orientation: IC50 means the concentration that inhibits the measured activity by half.

One experiment deals with adenosine A1 receptors. Further details: method as in Hutchison et al., 1989. Conditions: ref Hutchison et al., 1989; cited from earlier work.
Another experiment has as its target adenosine A2A receptors. The conditions noted are these: read-out: Ki for adenosine A2A receptors; ref Hutchison et al., 1989; cited from earlier work.
Experiment [1] concerns [3H]CGS21680 binding sites. Also on record: method as in Cunha et al., 1996, 1997. The conditions noted are these: ref Cunha et al., 1996, 1997, cited from earlier work.
The test system of experiment [2] is adenosine A2A receptors versus A1 receptors. Conditions: cited from earlier work.
The target in experiment [3] is T1, typical adenosine A2A receptors (Rattus norvegicus, UniProt P30543). Nature of the experiment: [3H]CGS21680 specific binding in rat hippocampus in the presence of DPCPX (typical sites). The conditions noted are these: DPCPX used to isolate typical sites.
In experiment [4] the target is atypical adenosine A2A receptors. The experiment can be described thus: Displacement of [3H]CGS21680 binding in rat striatum in the presence of CSC (atypical sites). Background: Loss of bound radioactivity is the signal in a displacement assay; it reports binding, not function.
Experiment [5] has as its system atypical adenosine A2A receptors. Nature of the experiment: Displacement of [3H]CGS21680 binding in rat hippocampus in the presence of CSC (atypical sites).
Method: The collected tissues were homogenized in about 25 volumes of incubation buffer and centrifuged at 40,000 g for 10 min at 4°C. The pellet was resuspended in the same fresh buffer, homogenized, centrifuged once again and the final pellet stored at −80°C until use. […] Prior to the competition binding assay, the pellet was resuspended in appropriate buffer at the wanted protein concentration and membrane suspension incubated with 5 U/ml adenosine deaminase (ADA, Sigma-Aldrich) for 30 min at 37°C to remove endogenous adenosine. The protein concentration of membrane suspension was determined using the Bradford method (Pierce, Rockford, IL, USA) with bovine albumin as standard. Competition binding experiments with [^3H]CGS21680 were performed by incubating membranes (50–100 μg of protein/sample) with a single concentrations of [^3H]CGS21680 (30 nM) for 2 h at room temperature in a solution containing 50 mM Tris-HCl, pH 7.4, 10 mM MgCl2 and 5 U/ml ADA and various concentrations (ranging from 10^−5 to 10^−12 M) of test compounds. Non-specific binding was determined in the presence of an excess of cold 2-chloroadenosine (Sigma-Aldrich). The binding reactions were stopped by vacuum filtration through GF/B filters, followed by washing of the filters with ice-cold washing buffer (same composition as the binding buffer) and filter-bound radioactivity measured by scintillation spectrometry. Competition studies were performed with the various compounds alone or in the presence of an excess of either CSC or DPCPX (both from Sigma-Aldrich). The compounds were dissolved in 100% DMSO (Sigma-Aldrich) at a concentration of 10 mM and stored at −20°C. An intermediate 100 μM working solution was prepared in water and subsequent scalar working solutions in incubation buffer.
Experiment [6] addresses T2, total adenosine A2A receptors (Rattus norvegicus, UniProt P30543). Nature of the experiment: Displacement of [3H]CGS21680 binding in rat hippocampal membranes, compounds alone (total).
Experiment [7] concerns the target T2, total adenosine A2A receptors. The experiment can be described thus: Displacement of [3H]CGS21680 binding in rat striatal membranes, compounds alone (total).
The next experiment deals with adenosine A2B receptor. Conditions: cited from earlier work.
Another experiment deals with A1 and A2A receptors. The conditions noted are these: transfected cells; ref Minetti et al., 2005; cited from earlier work.
For experiment [8], the target named is T1, typical adenosine A2A receptors. The experiment can be described thus: Displacement of [3H]CGS21680 binding in rat striatum in the presence of DPCPX (typical sites).

SMILES strings stand for the structures. Where two headings read alike, the source gives them in different places.

T2 sequence (P30543 whole entry): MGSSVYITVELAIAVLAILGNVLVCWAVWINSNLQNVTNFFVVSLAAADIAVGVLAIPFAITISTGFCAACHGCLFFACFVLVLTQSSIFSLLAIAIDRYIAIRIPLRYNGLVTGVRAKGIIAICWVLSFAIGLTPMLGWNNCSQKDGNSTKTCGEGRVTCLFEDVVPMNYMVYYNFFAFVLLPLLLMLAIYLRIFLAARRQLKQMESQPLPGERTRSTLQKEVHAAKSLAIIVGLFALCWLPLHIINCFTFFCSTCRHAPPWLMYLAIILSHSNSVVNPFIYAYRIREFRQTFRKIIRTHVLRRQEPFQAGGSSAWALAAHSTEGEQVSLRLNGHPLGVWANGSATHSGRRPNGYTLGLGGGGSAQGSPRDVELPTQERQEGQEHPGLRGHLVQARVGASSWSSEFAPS
T1 sequence (P30543 whole entry): as above

For the molecule `CCNC(=O)[C@H]1O[C@@H](n2cnc3c(N)nc(NCCc4ccc(CCC(=O)O)cc4)nc32)[C@H](O)[C@@H]1O` [CGS21680, 2-p-(2-carboxyethyl)phenethyl-amino-5’-N-ethylcarbox-amidoadenosine], the Ki on adenosine A1 receptors is about 3.1 µM; at adenosine A2A receptors, about 22 nM.
Consider `Cn1c(=O)c2c(nc(C=Cc3cccc(Cl)c3)n2C)n(C)c1=O` [CSC, 8-(3-chlorostyryl)-caffeine], for which, in [1], the “loss of potency in inhibiting [3H]CGS21680 binding in hippocampus and cortex versus striatal membranes” value is on record as 10 fold. For the same molecule, in [2] (ref Jacobson et al., 1993), the A2A/A1 selectivity was 520 fold.
As for `CCCn1c(=O)c2[nH]c(C3CCCC3)nc2n(CCC)c1=O` [DPCPX, 8-cyclopentyl-1,3-dipropylxanthine], in [1] (hippocampus and cortex, not striatum), the “concentrations displacing most of the [3H]CGS21680 binding in hippocampus and cortex” value is listed as “low nanomolar concentrations”. Besides, the “effect on [3H]CGS21680 specific binding in hippocampus” value in experiment [3] was “completely abolished”.
Regarding `CCCn1c(=O)c2c(nc(/C=C/c3ccc(OC)c(OC)c3)n2C)n(CCC)c1=O` [KF17837, (E)-8-(3,4-dimethoxystyryl)-1,3-dipropyl-7-methylxanthine], the “loss of potency in inhibiting [3H]CGS21680 binding in hippocampus and cortex versus striatal membranes” value in experiment [1] is reported as 10 fold. Further, the A2A/A1 selectivity in [2] (ref Nonaka et al., 1994) is given as 62 fold.
In the case of `CCn1c(=O)c2c(nc(/C=C/c3ccc(OC)c(OC)c3)n2C)n(CC)c1=O` [KW6002, (E)-1,3-diethyl-8-(3,4-dimethoxystyryl)-7-methyl-3,7-dihydro-1H-purine-2,6,dione, reference compound], in experiment [4], the Ki was determined as 74.2 nM and the “decrease in affinity for atypical binding sites” value is “decreased from two to five fold”. Also, the “binding in hippocampus in the presence of CSC” value in experiment [5] is “no binding”.
Take `Nc1nc2c(cnn2CCc2ccccc2)c2nc(-c3ccco3)nn12` [SCH58261, reference compound]: the “difference in affinity values between striatum and hippocampus” value in [6] is reported as “about 200 fold”. In experiment [7], this molecule came in with an IC50 of 16.7 nM and a Ki of 4.8 nM.
Regarding `CCCCc1nc(N)c2nc(-n3nccn3)n(C)c2n1` [ST1535, 2 butyl-9-methyl-8-(2H-1,2,3-triazol 2-yl)-9H-purin-6-xylamine], the “concentrations for A2B receptor higher than those for A2A receptors” value in the experiment on adenosine A2B receptor (ref Stasi et al., 2006) was “about 3 fold”. The “ratio between A1 and A2A receptors” value with A1 and A2A receptors is given as “about 10 fold”. Further, the IC50 in experiment [4] (Figure 3, rat striatum, 200 nmol/L CSC, (95% CI)) was determined as 256 nM; in experiment [8] (Figure 2, rat striatum, 100 nmol/L DPCPX, (95% CI)), 118 nM; in [7] (Figure 1, rat striatum, 30 nmol/L [3H]CGS21680, (95% CI), read-out: IC50), 79.6 nM; in [5] (Figure 5, rat hippocampus, 200 nmol/L CSC, (95% CI)), 446 nM. The Ki in experiment [4] (rat striatal membranes, in the presence of CSC, mean (95% CI)) worked out at 73 nM; in experiment [8] (rat striatal membranes, in the presence of DPCPX, mean (95% CI)), 33.7 nM; in experiment [7] (rat striatal membranes, 30 nM [3H]CGS21680, mean (95% CI) of 3-4 experiments, read-out: Ki values (nM) in striatum, Total), 22.8 nM; in [5] (read-out: Ki values (nM) in hippocampus, Atypical, rat hippocampal membranes, in the presence of CSC, mean (95% CI)) it was 146 nM. The “decrease in affinity for atypical binding sites” value in [4] (striatum, atypical versus total and typical) is recorded as “decreased from two to five fold”. Besides, the “Hill coefficients in the hippocampus” value in experiment [6] (hippocampus) is given as 0.6–0.8. Also, the “difference in affinity values between striatum and hippocampus” value in experiment [6] (total A2A binding, hippocampus versus striatum) is “about 5 fold”. The “Hill Slope” value in experiment [8] (Figure 2, rat striatum, 100 nmol/L DPCPX) was -1.007. For the same molecule, in experiment [8] (striatum, typical), the “Hill coefficient, typical striatal receptors” value is given as “around the unit”. The “Hill coefficient, total striatal receptors” value in experiment [7] (striatum, total) was 0.7. The “binding in hippocampus in the presence of CSC” value in experiment [5] (hippocampus, in the presence of CSC) is recorded as “displaced some affinity”.
With `Nc1nc(NCCc2ccc(O)cc2)nc2nc(-c3ccco3)nn12` [ZM241385, reference compound], the “concentrations for A2B receptor higher than those for A2A receptors” value in the experiment on adenosine A2B receptor (ref Linden et al., 1999) is 22 fold.
